Test results as given in patent publication US20170008888A1 (KYORIN PHARMACEUTICAL CO., LTD., priority 2014, published 2017).
Read-outs that look alike come from different tables or passages of the source.

Assays:
[1] = test system: AMPKa1 or AMPKa2; experiment: Probe-based (AX9989) kinase profiling in Jurkat lysate: AMPKa1 or AMPKa2; assay type: binding
Method in brief: (§1)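 Compounds were pre-incubated for 15 min at room temperature with gel-filtered Jurkat cell lysate supplemented with 20 mM MnCl2, after which the acyl phosphate ATP probe AX9989 was added at 5 μM final. Labeled active-site peptides were enriched after tryptic digestion and measured by LC/MS, with percent inhibition taken relative to samples without compound.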

[2] = test system: ABL or ARG; experiment: Probe-based (AX9989) kinase profiling in Jurkat lysate: ABL or ARG; assay type: binding
Method in brief: as §1

[3] = molecular target: T1, TAO2 (Homo sapiens, UniProt Q9UL54); experiment: Probe-based (AX9989) kinase profiling in Jurkat lysate: TAO2; assay type: binding
T1 construct: screened for activity against several kinases in Jurkat cells; endogenous in cells; host or cells: Jurkat cell lysate
T1 sequence (Q9UL54 1-1235): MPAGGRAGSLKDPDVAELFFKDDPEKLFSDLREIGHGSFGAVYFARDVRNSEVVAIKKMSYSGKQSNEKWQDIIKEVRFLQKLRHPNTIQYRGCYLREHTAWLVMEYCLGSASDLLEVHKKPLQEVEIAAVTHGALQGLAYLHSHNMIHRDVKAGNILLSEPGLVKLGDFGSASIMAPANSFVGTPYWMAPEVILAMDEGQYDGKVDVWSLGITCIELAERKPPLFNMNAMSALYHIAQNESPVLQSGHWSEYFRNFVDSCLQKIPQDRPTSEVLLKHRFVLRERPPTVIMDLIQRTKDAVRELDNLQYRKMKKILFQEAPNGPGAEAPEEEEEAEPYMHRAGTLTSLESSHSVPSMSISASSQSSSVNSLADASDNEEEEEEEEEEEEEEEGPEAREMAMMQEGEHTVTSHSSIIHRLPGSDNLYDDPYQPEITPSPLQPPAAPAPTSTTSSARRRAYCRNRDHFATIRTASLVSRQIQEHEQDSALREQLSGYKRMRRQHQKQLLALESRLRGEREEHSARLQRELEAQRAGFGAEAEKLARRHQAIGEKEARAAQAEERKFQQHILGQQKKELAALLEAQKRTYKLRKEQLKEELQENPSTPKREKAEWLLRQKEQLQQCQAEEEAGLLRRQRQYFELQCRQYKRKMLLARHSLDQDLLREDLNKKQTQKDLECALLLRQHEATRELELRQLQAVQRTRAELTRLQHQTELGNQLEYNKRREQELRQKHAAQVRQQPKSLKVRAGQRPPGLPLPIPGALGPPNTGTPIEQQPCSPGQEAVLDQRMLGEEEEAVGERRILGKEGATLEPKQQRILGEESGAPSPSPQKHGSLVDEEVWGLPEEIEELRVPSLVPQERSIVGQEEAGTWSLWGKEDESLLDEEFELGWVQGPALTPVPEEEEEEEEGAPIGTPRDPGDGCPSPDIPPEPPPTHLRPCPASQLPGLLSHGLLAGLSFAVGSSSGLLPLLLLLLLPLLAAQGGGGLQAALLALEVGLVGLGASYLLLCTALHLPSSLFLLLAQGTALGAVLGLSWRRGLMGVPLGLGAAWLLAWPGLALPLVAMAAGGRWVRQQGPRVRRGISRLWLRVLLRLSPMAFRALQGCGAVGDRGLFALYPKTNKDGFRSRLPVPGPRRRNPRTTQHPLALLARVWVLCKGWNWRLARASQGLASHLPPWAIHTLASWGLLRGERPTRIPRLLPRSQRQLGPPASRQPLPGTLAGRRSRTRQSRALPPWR
Method in brief: as §1

[4] = molecular target: T2, ACK (Homo sapiens, UniProt Q07912); experiment: Probe-based (AX9989) kinase profiling in Jurkat lysate: ACK; assay type: binding
T2 construct: screened for activity against several kinases in Jurkat cells; endogenous in cells; host or cells: Jurkat cell lysate
T2 sequence (Q07912 whole entry): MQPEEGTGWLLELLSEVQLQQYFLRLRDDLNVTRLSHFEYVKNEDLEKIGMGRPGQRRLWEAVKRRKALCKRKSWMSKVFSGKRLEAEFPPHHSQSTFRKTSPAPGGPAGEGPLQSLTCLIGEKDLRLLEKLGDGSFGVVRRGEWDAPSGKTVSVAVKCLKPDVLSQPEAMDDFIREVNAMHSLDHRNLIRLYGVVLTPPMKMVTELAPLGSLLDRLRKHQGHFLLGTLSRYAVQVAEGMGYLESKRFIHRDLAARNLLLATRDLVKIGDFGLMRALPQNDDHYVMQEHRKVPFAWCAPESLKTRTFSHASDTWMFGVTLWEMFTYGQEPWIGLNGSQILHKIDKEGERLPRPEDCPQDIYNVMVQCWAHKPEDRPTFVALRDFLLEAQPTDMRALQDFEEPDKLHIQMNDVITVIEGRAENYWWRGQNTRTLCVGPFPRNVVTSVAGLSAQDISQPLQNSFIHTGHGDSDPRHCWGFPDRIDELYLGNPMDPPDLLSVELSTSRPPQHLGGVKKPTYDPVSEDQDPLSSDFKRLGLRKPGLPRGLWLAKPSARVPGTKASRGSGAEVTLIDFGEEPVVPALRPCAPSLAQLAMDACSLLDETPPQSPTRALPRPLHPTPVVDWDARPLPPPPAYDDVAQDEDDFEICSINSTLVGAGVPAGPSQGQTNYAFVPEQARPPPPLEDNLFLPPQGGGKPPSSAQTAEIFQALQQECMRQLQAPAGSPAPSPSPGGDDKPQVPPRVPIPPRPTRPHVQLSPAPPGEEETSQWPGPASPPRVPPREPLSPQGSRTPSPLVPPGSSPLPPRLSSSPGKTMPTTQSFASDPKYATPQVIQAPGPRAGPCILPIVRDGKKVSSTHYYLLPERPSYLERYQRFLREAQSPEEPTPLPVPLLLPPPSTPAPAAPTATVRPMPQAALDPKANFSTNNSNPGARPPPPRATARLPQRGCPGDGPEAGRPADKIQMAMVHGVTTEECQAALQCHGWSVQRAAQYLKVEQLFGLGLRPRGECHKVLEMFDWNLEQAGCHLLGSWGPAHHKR
Method in brief: as §1

[5] = molecular target: T3, AurA (Homo sapiens, UniProt O14965); experiment: Probe-based (AX9989) kinase profiling in Jurkat lysate: AurA; assay type: binding
T3 construct: screened for activity against several kinases in Jurkat cells; endogenous in cells; host or cells: Jurkat cell lysate
T3 sequence (O14965 1-403): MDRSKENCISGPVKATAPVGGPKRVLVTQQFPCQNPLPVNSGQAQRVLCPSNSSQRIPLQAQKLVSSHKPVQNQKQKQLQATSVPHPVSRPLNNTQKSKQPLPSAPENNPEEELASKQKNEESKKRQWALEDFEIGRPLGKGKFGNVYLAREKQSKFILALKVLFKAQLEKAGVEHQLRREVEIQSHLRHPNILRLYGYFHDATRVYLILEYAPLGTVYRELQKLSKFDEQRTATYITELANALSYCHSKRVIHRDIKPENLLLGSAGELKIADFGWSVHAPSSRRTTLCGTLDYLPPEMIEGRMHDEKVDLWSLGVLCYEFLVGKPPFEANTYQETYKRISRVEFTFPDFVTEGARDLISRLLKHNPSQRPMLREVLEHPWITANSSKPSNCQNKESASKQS
Method in brief: as §1

[6] = molecular target: T4, JAK1 (Homo sapiens, UniProt P23458); experiment: Probe-based (AX9989) kinase profiling in Jurkat lysate: JAK1; assay type: binding
T4 construct: screened for activity against several kinases in Jurkat cells; endogenous in cells; host or cells: Jurkat cell lysate
T4 sequence (P23458 whole entry): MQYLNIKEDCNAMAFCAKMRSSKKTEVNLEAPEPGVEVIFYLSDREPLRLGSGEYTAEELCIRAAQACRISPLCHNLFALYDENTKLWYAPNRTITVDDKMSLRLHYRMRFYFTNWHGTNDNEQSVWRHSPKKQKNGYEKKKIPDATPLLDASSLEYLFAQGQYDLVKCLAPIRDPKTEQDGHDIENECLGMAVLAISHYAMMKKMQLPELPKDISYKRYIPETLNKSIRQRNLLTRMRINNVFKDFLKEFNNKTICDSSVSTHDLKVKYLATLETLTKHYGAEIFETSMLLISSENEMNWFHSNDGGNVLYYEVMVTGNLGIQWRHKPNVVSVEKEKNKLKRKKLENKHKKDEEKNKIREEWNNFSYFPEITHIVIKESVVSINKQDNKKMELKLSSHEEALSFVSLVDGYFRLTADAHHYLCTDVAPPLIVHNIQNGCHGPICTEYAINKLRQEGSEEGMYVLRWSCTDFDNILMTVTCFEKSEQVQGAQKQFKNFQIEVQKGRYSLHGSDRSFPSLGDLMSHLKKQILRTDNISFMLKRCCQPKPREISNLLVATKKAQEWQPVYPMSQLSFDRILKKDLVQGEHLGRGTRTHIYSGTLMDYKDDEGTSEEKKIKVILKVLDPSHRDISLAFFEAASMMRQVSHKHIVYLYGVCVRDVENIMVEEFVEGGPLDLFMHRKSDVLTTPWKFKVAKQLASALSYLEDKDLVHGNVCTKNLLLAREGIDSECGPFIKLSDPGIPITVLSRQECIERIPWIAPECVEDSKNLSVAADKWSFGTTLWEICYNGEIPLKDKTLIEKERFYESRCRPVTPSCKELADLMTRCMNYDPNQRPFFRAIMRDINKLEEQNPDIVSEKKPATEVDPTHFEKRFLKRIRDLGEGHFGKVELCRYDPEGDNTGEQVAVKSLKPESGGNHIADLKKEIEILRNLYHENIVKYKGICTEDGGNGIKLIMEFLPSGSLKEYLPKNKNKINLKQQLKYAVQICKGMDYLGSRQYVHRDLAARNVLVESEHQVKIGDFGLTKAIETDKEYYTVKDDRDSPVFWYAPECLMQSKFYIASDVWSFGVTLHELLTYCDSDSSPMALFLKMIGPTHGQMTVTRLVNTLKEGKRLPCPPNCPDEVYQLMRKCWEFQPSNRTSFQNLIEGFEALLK
Method in brief: as §1

[7] = test system: human PBMCs; experiment: Human PBMC TNF-α response to endotoxin (ELISA); assay type: cell-based; conditions: 0.1 μg/ml LPS 16 h, read-out: EC50 for the inhibition of the human PBMC TNF-α response to endotoxin, ave. ± S.D.
Method: Human PBMCs (Astarte Biologics, Redmond, Wash.) were seeded at 2e6 cells/ml in RPMI 1640 containing 10% (v/v) charcoal-dextran treated, heat inactivated FBS (Omega Scientific, Tarzana, Calif.), 0.05 mM 2-Mercaptoethanol (Sigma-Aldrich, St. Louis, Mo.), and 1×Pen/Strep Amphotericin B (Lonza, Allendale, N.J.). Cells were pre-treated with test compounds (10 μM down by ⅕ in a 4-point serial dilution series) for 1 h at 37° C. in a humidified atmosphere at 5% CO2. Cells were then stimulated with 0.1 μg/ml lipopolysaccharide (LPS) from E. coli 0111:B4 (EMD Millipore, Billerica, Mass.) for 16 h at 37° C. in a humidified atmosphere at 5% CO2. Supernatant was collected and a 25-fold dilution was analyzed for TNF-α concentration using an ELISA kit from Life Technologies (Grand Island, N.Y.) according to the manufacturer's instructions. Absorbance at 450 nm was read using the Synergy 2 multi-detection microplate reader (BioTek Instruments, Winooski, Vt.).

[8] = test system: AurB or AurC; experiment: Probe-based (AX9989) kinase profiling in Jurkat lysate: AurB or AurC; assay type: binding
Method in brief: as §1

[9] = molecular target: T5, ERK5 (Homo sapiens, UniProt Q13164); experiment: Probe-based (AX9989 acyl phosphate ATP probe) kinase profiling in Jurkat lysate: ERK5; assay type: binding; conditions: for IC50: Jurkat lysate
T5 construct: screened for activity against several kinases in Jurkat cells; endogenous in cells; host or cells: Jurkat cell lysate
T5 sequence (Q13164 whole entry): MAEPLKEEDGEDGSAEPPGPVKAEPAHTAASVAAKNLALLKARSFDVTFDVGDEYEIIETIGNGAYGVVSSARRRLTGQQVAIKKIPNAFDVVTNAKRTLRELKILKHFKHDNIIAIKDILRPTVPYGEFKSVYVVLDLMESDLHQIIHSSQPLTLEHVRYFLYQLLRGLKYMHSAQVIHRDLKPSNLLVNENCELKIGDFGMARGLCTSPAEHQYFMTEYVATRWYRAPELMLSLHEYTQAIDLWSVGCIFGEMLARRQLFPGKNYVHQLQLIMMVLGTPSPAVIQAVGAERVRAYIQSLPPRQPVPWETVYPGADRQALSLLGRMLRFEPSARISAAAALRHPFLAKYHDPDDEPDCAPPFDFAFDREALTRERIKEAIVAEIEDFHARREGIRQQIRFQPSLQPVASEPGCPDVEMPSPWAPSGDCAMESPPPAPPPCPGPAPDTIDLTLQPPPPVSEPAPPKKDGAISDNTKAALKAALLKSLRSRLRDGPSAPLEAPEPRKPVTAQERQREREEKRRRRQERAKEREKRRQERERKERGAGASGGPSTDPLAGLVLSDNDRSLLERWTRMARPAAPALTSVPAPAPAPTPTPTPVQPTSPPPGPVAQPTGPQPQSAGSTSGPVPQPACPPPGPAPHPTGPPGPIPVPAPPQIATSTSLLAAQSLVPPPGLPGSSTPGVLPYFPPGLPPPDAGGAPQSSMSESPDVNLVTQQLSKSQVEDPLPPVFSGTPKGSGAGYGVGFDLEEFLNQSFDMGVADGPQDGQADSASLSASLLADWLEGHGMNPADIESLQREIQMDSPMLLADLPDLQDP
Method in brief: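 Gel-filtered Jurkat lysate (5 mg/ml, 20 mM MnCl2) preincubated 15 min at room temperature with compound, then labelled with 5 μM AX9989 acyl phosphate ATP probe. Probe-labelled ERK5 active-site peptides quantified by LC/MS after trypsin digestion and streptavidin capture; IC50 calculated from percent inhibition at the screening concentration.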

[10] = screening concentration 1 μM, read-out: TAO2 Inhibition % at indicated screening concentration
[11] = screening concentration 1 μM, read-out: ACK Inhibition % at indicated screening concentration
[12] = screening concentration 1 μM, read-out: AurA Inhibition % at indicated screening concentration
[13] = screening concentration 1 μM, read-out: JAK1 Inhibition % at indicated screening concentration
[14] = calculated from percent inhibition and screening concentration, AX9989 probe
[15] = screening concentration 1 μM, read-out: ERK5 Inhibition % at indicated screening concentration

Structure (SMILES)	AMPKa1 or AMPKa2 Inhibition % at indicated screening concentration ([1]; screening concentration 1 μM)	ABL or ARG Inhibition % at indicated screening concentration ([2]; screening concentration 1 μM)	inhibition at 1 µM [3, 10]	inhibition at 1 µM [4, 11]	inhibition at 1 µM [5, 12]	inhibition at 1 µM [6, 13]	AurB or AurC Inhibition % at indicated screening concentration ([8]; screening concentration 1 μM)	IC50 [9, 14]	inhibition at 1 µM [9, 15]	EC50 [7]	further results
CCOc1cc(C(=O)N2CCN(C(C)=O)CC2)ccc1Nc1cc2c(cn1)N(C)C(=O)c1scnc1N2C [Compound T73]	E (E is ≦35%)	E (E is ≦35%)	≤ 35%	≤ 35%	≤ 35%	≤ 35%	E (E is ≦35%)	> 500 nM	35 to 50%	> 10000 nM	
CN1CCN([C@@H]2CCN(C(=O)c3ccc(Nc4cc5c(cn4)N(C)C(=O)c4ccccc4N5C)c(F)c3)C2)CC1 [Compound T69]	E (E is ≦35%)	E (E is ≦35%)	≤ 35%	35 to 50%	≤ 35%	≤ 35%	E (E is ≦35%)	≤ 50 nM	> 90%	3480 nM	
CCOc1cc(C(=O)N2CCN(C(C)=O)CC2)ccc1Nc1cc2c(cn1)N(C)C(=O)c1ccccc1N2C1CC1 [Compound T67]	E (E is ≦35%)	E (E is ≦35%)	≤ 35%	35 to 50%	≤ 35%	≤ 35%	E (E is ≦35%)	≤ 50 nM	> 90%	4900 nM	
CCOc1cc(C(=O)NCCN2CCOCC2)ccc1Nc1cc2c(cn1)N(C)C(=O)c1ccccc1N2C [Compound 5]										1750 nM	Kinase inhibition % at indicated screening concentration: AMPKa1 or AMPKa2 ([1]; screening concentration 1.0 μM): E (E is ≦35%); Kinase inhibition % at indicated screening concentration: ABL or ARG ([2]; screening concentration 1.0 μM): D (D is >35% to ≦50%); inhibition at 1 µM ([3]; screening concentration 1.0 μM, read-out: Kinase inhibition % at indicated screening concentration: TAO2): ≤ 35%; inhibition at 1 µM ([4]; screening concentration 1.0 μM, read-out: Kinase inhibition % at indicated screening concentration: ACK): ≤ 35%; inhibition at 1 µM ([5]; screening concentration 1.0 μM, read-out: Kinase inhibition % at indicated screening concentration: AurA): ≤ 35%; inhibition at 1 µM ([6]; screening concentration 1.0 μM, read-out: Kinase inhibition % at indicated screening concentration: JAK1): ≤ 35%; Kinase inhibition % at indicated screening concentration: AurB or AurC ([8]; screening concentration 1.0 μM): E (E is ≦35%); IC50 ([9]; calculated from percent inhibition of AX9989 labeling and the screening concentration): 101 to 500 nM; inhibition at 1 µM ([9]; screening concentration 1.0 μM, read-out: Kinase inhibition % at indicated screening concentration: ERK5): 50 to 75%
CCOc1cc(C(=O)N2CCN(C3CCN(C)CC3)CC2)ccc1Nc1cc2c(cn1)N(C)C(=N)c1ccccc1N2C [Compound T80]								> 500 nM		> 15000 nM	AMPKa1 or AMPKa2 Inhibition % at indicated screening concentration ([1]; screening concentration 10 μM): E (E is ≦35%); ABL or ARG Inhibition % at indicated screening concentration ([2]; screening concentration 10 μM): E (E is ≦35%); inhibition at 10 µM ([3]; screening concentration 10 μM, read-out: TAO2 Inhibition % at indicated screening concentration): ≤ 35%; inhibition at 10 µM ([4]; screening concentration 10 μM, read-out: ACK Inhibition % at indicated screening concentration): ≤ 35%; inhibition at 10 µM ([5]; screening concentration 10 μM, read-out: AurA Inhibition % at indicated screening concentration): ≤ 35%; inhibition at 10 µM ([6]; screening concentration 10 μM, read-out: JAK1 Inhibition % at indicated screening concentration): ≤ 35%; AurB or AurC Inhibition % at indicated screening concentration ([8]; screening concentration 10 μM): E (E is ≦35%); inhibition at 10 µM ([9]; screening concentration 10 μM, read-out: ERK5 Inhibition % at indicated screening concentration): ≤ 35%

Second part, led by results:

AMPKa1 or AMPKa2 Inhibition % at indicated screening concentration ([1]; screening concentration 1 μM)	ABL or ARG Inhibition % at indicated screening concentration ([2]; screening concentration 1 μM)	inhibition at 1 µM [3, 10]	inhibition at 1 µM [4, 11]	inhibition at 1 µM [5, 12]	inhibition at 1 µM [6, 13]	AurB or AurC Inhibition % at indicated screening concentration ([8]; screening concentration 1 μM)	IC50 [9, 14]	inhibition at 1 µM [9, 15]	Structure (SMILES)	EC50 [7]	further results
E (E is ≦35%)	E (E is ≦35%)	≤ 35%	≤ 35%	≤ 35%	≤ 35%	E (E is ≦35%)	> 500 nM	50 to 75%	CCOc1cc(C(=O)N2CC[C@@H](N3CCN(C)CC3)C2)ccc1Nc1cc2c(cn1)N(C)C(=O)c1scnc1N2C [Compound T74]	4820 nM	
E (E is ≦35%)	E (E is ≦35%)	≤ 35%	≤ 35%	≤ 35%	≤ 35%	E (E is ≦35%)	101 to 500 nM	50 to 75%	CCOc1cc(C(=O)N[C@H]2CC[C@H](C#N)CC2)ccc1Nc1cc2c(cn1)N(C)C(=O)c1ccccc1N2C [Compound T59]	720 nM	
E (E is ≦35%)	E (E is ≦35%)	≤ 35%	≤ 35%	≤ 35%	≤ 35%	E (E is ≦35%)	≤ 50 nM	> 90%	CCOc1cc(C(=O)N2CCC(N3CCCC3)CC2)ccc1Nc1cc2c(cn1)N(C)C(=O)c1scnc1N2C [Compound T6]	400 nM	
